Measurements taken from ChEMBL document CHEMBL1201862, “PubChem BioAssay data set” (2004).
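All cell lines were grown in 96-well plates and treated with compound for 48 hours. The concentration for 50% growth inhibition is given as GI50.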 Calls of active or inactive are those of the source. Cut-off read from the data, not from the text of the source: active = GI50 up to about 1.1 µM and inactive = higher.

How the values were obtained:
Assay in all cases: inhibition of tumour cell growth, NCI panel, 48 h
LOX IMVI = test system: LOX IMVI
HCT-15 = test system: HCT-15
SK-MEL-5 = test system: SK-MEL-5
UO-31 = test system: UO-31
CAKI-1 = test system: CAKI-1
SN12C = test system: SN12C
A549 = test system: A549
K562 = test system: K562
SR = test system: SR
EKVX = test system: EKVX
PC-3 = test system: PC-3
A498 = test system: A498
SK-OV-3 = test system: SK-OV-3
SF-295 = test system: SF-295
NCI-H23 = test system: NCI-H23
RXF 393 = test system: RXF 393
HL-60 = test system: HL-60
TK-10 = test system: TK-10
SK-MEL-28 = test system: SK-MEL-28
Malme-3M = test system: Malme-3M

Row | SMILES | GI50 (LOX IMVI) | GI50 (HCT-15) | GI50 (SK-MEL-5) | GI50 (UO-31) | GI50 (CAKI-1) | GI50 (SN12C) | GI50 (A549) | GI50 (K562) | GI50 (SR) | GI50 (EKVX) | GI50 (PC-3) | GI50 (A498) | GI50 (SK-OV-3) | GI50 (SF-295) | GI50 (NCI-H23) | GI50 (RXF 393) | GI50 (HL-60) | GI50 (TK-10) | GI50 (SK-MEL-28) | GI50 (Malme-3M)
1 | CC1=NN(c2nc(N)nc(CN3CCOCC3)n2)C(C)(C)C1 | 14.9 µM (inactive) | > 100 µM | 73.3 µM (inactive) | 18.1 µM (inactive) | 20.2 µM (inactive) | > 100 µM (inactive) | > 100 µM (inactive) | > 100 µM (inactive) | 30.1 µM (inactive) | 31.8 µM (inactive) | > 100 µM (inactive) | > 100 µM (inactive) | > 100 µM (inactive) | > 100 µM (inactive) | > 100 µM (inactive) | > 100 µM (inactive) | 15.2 µM (inactive) | > 100 µM (inactive) | > 100 µM (inactive) | –
2 | Cc1cc(C)c2c(c1)C1=NCCN1C2(O)c1ccc(Cl)cc1 (stereo not given) | 29.3 µM (inactive) | 17.2 µM | 14.6 µM (inactive) | 13.9 µM (inactive) | 15.1 µM (inactive) | 16.5 µM (inactive) | 18.2 µM (inactive) | 19.1 µM (inactive) | 20.1 µM (inactive) | 16.1 µM (inactive) | 16 µM (inactive) | 15.2 µM (inactive) | 15 µM (inactive) | 15.7 µM (inactive) | 17.8 µM (inactive) | 13.6 µM (inactive) | 19.9 µM (inactive) | 2.79 µM (inactive) | 16.8 µM (inactive) | –
3 | CCN(CC)CC1CN=C(N)O1 (stereo not given) | > 100 µM (inactive) | > 100 µM | > 100 µM (inactive) | > 100 µM (inactive) | > 100 µM (inactive) | > 100 µM (inactive) | > 100 µM (inactive) | > 100 µM (inactive) | > 100 µM (inactive) | > 100 µM (inactive) | > 100 µM (inactive) | > 100 µM (inactive) | – | > 100 µM (inactive) | > 100 µM (inactive) | > 100 µM (inactive) | – | – | > 100 µM (inactive) | –
4 | CC/C(=C/OC)P1(=O)OC(C)(C)CN1C(C)(C)C (stereo not given) | > 100 µM (inactive) | > 100 µM | > 100 µM (inactive) | > 100 µM (inactive) | > 100 µM (inactive) | – | > 100 µM (inactive) | > 100 µM (inactive) | > 100 µM (inactive) | > 100 µM (inactive) | > 100 µM (inactive) | > 100 µM (inactive) | > 100 µM (inactive) | > 100 µM (inactive) | > 100 µM (inactive) | – | – | > 100 µM (inactive) | – | > 100 µM (inactive)
5 | Cc1cc(C)c(N[S+]([O-])c2cccc(Cl)c2)c(C)c1 (stereo not given) | – | > 100 µM | – | > 100 µM (inactive) | – | > 100 µM (inactive) | > 100 µM (inactive) | > 100 µM (inactive) | > 100 µM (inactive) | > 100 µM (inactive) | > 100 µM (inactive) | 29.2 µM (inactive) | – | > 100 µM (inactive) | > 100 µM (inactive) | > 100 µM (inactive) | > 100 µM (inactive) | > 100 µM (inactive) | > 100 µM (inactive) | > 100 µM (inactive)
6 | CC(C)NCC(O)c1ccc(O)c2ncccc12 (stereo not given) | 30.3 µM (inactive) | 25.9 µM | 66.4 µM (inactive) | 67.6 µM (inactive) | 64.9 µM (inactive) | 30.3 µM (inactive) | 6.82 µM (inactive) | 19.5 µM (inactive) | 25.4 µM (inactive) | 49.3 µM (inactive) | 46.5 µM (inactive) | > 100 µM (inactive) | 21.9 µM (inactive) | 30.9 µM (inactive) | 11 µM (inactive) | 91 µM (inactive) | 24.6 µM (inactive) | 47.3 µM (inactive) | > 100 µM (inactive) | –
7 | C[C@H](CCC(=O)O)[C@H]1CC[C@H]2[C@@H]3[C@H](O)C[C@@H]4C[C@H](O)CC[C@]4(C)[C@H]3CC[C@]12C [CHENODIOL] | 32.5 µM (inactive) | 32.1 µM | – | 21.4 µM (inactive) | 37.2 µM (inactive) | 43.2 µM (inactive) | 34.8 µM (inactive) | 35.6 µM (inactive) | 14.6 µM (inactive) | 33.8 µM (inactive) | 36.4 µM (inactive) | 69.5 µM (inactive) | – | – | 27.9 µM (inactive) | 44.7 µM (inactive) | 34 µM (inactive) | 26.2 µM (inactive) | 42.6 µM (inactive) | 32.2 µM (inactive)
8 | CC1(O)Oc2ccc3ccccc3c2C=C1C(N)=O (stereo not given) | > 100 µM (inactive) | 53.7 µM | 58.6 µM (inactive) | > 100 µM (inactive) | 80.5 µM (inactive) | – | – | > 100 µM (inactive) | 46.5 µM (inactive) | 54 µM (inactive) | 64.9 µM (inactive) | 28.1 µM (inactive) | > 100 µM (inactive) | > 100 µM (inactive) | > 100 µM (inactive) | 49.2 µM (inactive) | > 100 µM (inactive) | > 100 µM (inactive) | > 100 µM (inactive) | –
9 | C[N+](C)(C)CC(=O)N/N=C(\Cc1nc2ccc([N+](=O)[O-])cc2nc1O)C(=O)Nc1nc2ccc([N+](=O)[O-])cc2s1 | 35.6 µM (inactive) | 28 µM | 37.3 µM (inactive) | 25.7 µM (inactive) | 24.6 µM (inactive) | 89.1 µM (inactive) | 36.3 µM (inactive) | 86.3 µM (inactive) | 44.1 µM (inactive) | 25 µM (inactive) | 27.1 µM (inactive) | 51.5 µM (inactive) | 34 µM (inactive) | 51.8 µM (inactive) | 30.7 µM (inactive) | 41.3 µM (inactive) | > 100 µM (inactive) | 67.6 µM (inactive) | > 100 µM (inactive) | –
10 | Nn1c(Cc2ccccc2)n[nH]c1=O | > 100 µM (inactive) | > 100 µM | > 100 µM (inactive) | > 100 µM (inactive) | > 100 µM (inactive) | > 100 µM (inactive) | > 100 µM (inactive) | > 100 µM (inactive) | > 100 µM (inactive) | > 100 µM (inactive) | > 100 µM (inactive) | > 100 µM (inactive) | > 100 µM (inactive) | > 100 µM (inactive) | > 100 µM (inactive) | – | > 100 µM (inactive) | > 100 µM (inactive) | > 100 µM (inactive) | 37.2 µM (inactive)
11 | CC(=O)Nc1ccc(C(O)/C(=N/N)c2nc3ccc(Cl)cc3nc2O)cc1 (stereo not given) | > 100 µM (inactive) | > 100 µM | > 100 µM (inactive) | > 100 µM (inactive) | > 100 µM (inactive) | > 100 µM (inactive) | > 100 µM (inactive) | – | > 100 µM (inactive) | > 100 µM (inactive) | > 100 µM (inactive) | > 100 µM (inactive) | – | > 100 µM (inactive) | > 100 µM (inactive) | > 100 µM (inactive) | > 100 µM (inactive) | > 100 µM (inactive) | > 100 µM (inactive) | > 100 µM (inactive)
